From US20220016102A1, “ER PROTEIN REGULATORS AND USE THEREOF” (ShanghaiTech University, priority 2018, published 2022)

Key:
Assay type in all cases: cell-based
[1] = target: T1, ER protein (Homo sapiens, UniProt P03372); experiment: Western blotting analysis of ER protein degradation in MCF-7 cell line; set-up: western blotting detection of the level of intracellular ER protein; endogenous in cells; conditions: MCF-7 cells, Western blot gray values vs DMSO control
T1 sequence (P03372 1-595): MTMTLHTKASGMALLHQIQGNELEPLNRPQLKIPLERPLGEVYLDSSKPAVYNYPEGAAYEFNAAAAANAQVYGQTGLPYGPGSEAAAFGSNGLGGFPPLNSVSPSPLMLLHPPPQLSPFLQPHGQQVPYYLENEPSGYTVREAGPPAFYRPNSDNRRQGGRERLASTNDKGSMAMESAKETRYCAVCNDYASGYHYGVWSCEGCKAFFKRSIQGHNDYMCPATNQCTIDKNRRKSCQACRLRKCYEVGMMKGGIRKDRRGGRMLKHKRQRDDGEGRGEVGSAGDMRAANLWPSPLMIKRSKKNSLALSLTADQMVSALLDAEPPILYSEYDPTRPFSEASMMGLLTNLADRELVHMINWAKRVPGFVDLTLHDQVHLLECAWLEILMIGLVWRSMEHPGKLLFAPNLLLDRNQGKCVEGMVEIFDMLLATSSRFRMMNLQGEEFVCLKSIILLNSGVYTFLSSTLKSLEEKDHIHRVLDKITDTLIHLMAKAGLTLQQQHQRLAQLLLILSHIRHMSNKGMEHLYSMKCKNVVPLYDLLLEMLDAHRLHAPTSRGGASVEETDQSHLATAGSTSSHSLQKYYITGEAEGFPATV
Method: MCF-7 were cultured in ncubator with 5% CO2 at 37° C. Complete medium was EMEM supplemented with 10% FBS, 100 U/mL Penicillin and Streptomycin, and 0.77 μg/mL recombinant human insulin. […]
DC50 value (the drug concentration required for degrading proteins by 50%, abbreviated as DC50) reads method: comparing the gray values of the Western blotting bands for the drug treatment with the gray values of the Western blotting band for the DMSO control, and reading the drug concentration range corresponding to the gray value of the Western blotting bands for the drug treatment which is equal to half of the gray value of the Western blotting band for the DMSO control.
DC50 value could also be calculated as follows: using software ImageJ to quantify the gray values of the Western blotting bands for the drug treatment, fitting the relationship curve between drug concentrations and gray values, and from the fitted curve, calculating the drug concentration corresponding to half of the gray value of the Western blotting band for the DMSO control.

[2] = test system: MCF-7 cell line; experiment: Assay for determination of inhibition of MCF-7 cell proliferation (CCK-8); conditions: Homo sapiens, MCF7, 96 h; MCF-7 cells, 4 days, CCK-8, FIG. 3
Method: MCF-7 were cultured in ncubator with 5% CO2 at 37° C. Complete medium was EMEM supplemented with 10% FBS, 100 U/mL Penicillin and Streptomycin, and 0.77 μg/mL recombinant human insulin.
10 μL CCK-8 reagent was added to the test well without adding the drugs, and after 4 h the O.D.value of the test well was recorded as the initial cell level. • After 4 days, 10 μL CCK-8 reagent was added, and the O.D.values was measured, and inhibition level was calculated.

[3] = target: T1, ER protein; experiment: Western blotting analysis of ER protein degradation in T47D cell line; set-up: western blotting detection of the level of intracellular ER protein; endogenous in cells; host or cells: T47D; conditions: degradation of ER protein, T47D cells, drug treatment for 16 hours, Western blot gray values vs DMSO control; read-out: DC50 (nM)/T47Dcell line
Outline: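 T47D cells seeded at 1.5×10^5 cells/mL, adhered 24 h, then treated with compound; ER protein level read by Western blot band gray value versus DMSO control. DC50 taken as concentration giving half the control gray value, read from bands or from a fitted concentration–gray value curve.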

| SMILES | DC50 [1] [nM] | IC50 [2] [nM] | DC50 [3] [nM] |
| --- | --- | --- | --- |
| Cc1ncsc1-c1ccc(CNC(=O)[C@@H]2C[C@@H](O)CN2C(=O)[C@@H](NC(=O)CCCCCCCC(=O)NCCOc2ccc(C(=C(CCCl)c3ccccc3)c3ccc(O)cc3)cc2)C(C)(C)C)cc1 [SIAIS208035, N1-(2-(4-(4-chloro-1-(4-hydroxyphenyl)-2-phenylbut-1-en-1-yl)phenoxy)ethyl)-N9-((S)-1-((2S,4R)-4-hydroxy-2-((4-(4-methylthiazol-5-yl)benzyl)carbamoyl)pyrrolidin-1-yl)-3,3-dimethyl-1-oxobutan-2-yl)nonanediamide] | < 10 | 0.75 | < 10 |
| CN(C)CCOc1ccc(/C(=C(/CCCl)c2ccccc2)c2ccccc2)cc1 [Toremifene, reference compound] |  | 869 |  |
| CCC(=C(c1ccc(O)cc1)c1ccc(OCCNC(=O)CCOCCOCCC(=O)N[C@H](C(=O)N2C[C@H](O)C[C@H]2C(=O)NCc2ccc(-c3scnc3C)cc2)C(C)(C)C)cc1)c1ccc(O)cc1 [SIAIS208173, (2S,4R)-1-((S)-16-(4-(1,2-bis(4-hydroxyphenyl)but-1-en-1-yl)phenoxy)-2-(tert-butyl)-4,13-dioxo-7,10-dioxa-3,14-diazahexadecanoyl)-4-hydroxy-N-(4-(4-methylthiazol-5-yl)benzyl)pyrrolidine-2-carboxamide] |  | 3.6 | < 10 |
| Cc1ncsc1-c1ccc(CNC(=O)[C@@H]2C[C@@H](O)CN2C(=O)[C@@H](NC(=O)CCCCCCC(=O)N2CCN(CCOc3ccc(C(=C(CCCl)c4ccccc4)c4ccc(O)cc4)cc3)CC2)C(C)(C)C)cc1 [SIAIS251045, (2S,4R)-1-((S)-2-(8-(4-(2-(4-(4-chloro-1-(4-hydroxyphenyl)-2-phenylbut-1-en-1-yl)phenoxy)ethyl)piperazin-1-yl)-8-oxooctanamido)-3,3-dimethylbutanoyl)-4-hydroxy-N-(4-(4-methylthiazol-5-yl)benzyl)pyrrolidine-2-carboxamide] |  | 4.2 | < 10 |
| CCC(=C(c1ccc(O)cc1)c1ccc(OCCNC(=O)CCCCCCCCC(=O)N[C@H](C(=O)N2C[C@H](O)C[C@H]2C(=O)NCc2ccc(-c3scnc3C)cc2)C(C)(C)C)cc1)c1ccc(O)cc1 [SIAIS208168, N1-(2-(4-(1,2-bis(4-hydroxyphenyl)but-1-en-1-yl)phenoxy)ethyl)-N10-((S)-1-((2S,4R)-4-hydroxy-2-((4-(4-methylthiazol-5-yl)benzyl)carbamoyl)pyrrolidin-1-yl)-3,3-dimethyl-1-oxobutan-2-yl)decanediamide] |  | 0.75 | < 1 |
| Cc1ncsc1-c1ccc(CNC(=O)[C@@H]2C[C@@H](O)CN2C(=O)[C@@H](NC(=O)CCCCCCCCCC(=O)NCCOc2ccc(C(=C(CCCl)c3ccccc3)c3ccc(O)cc3)cc2)C(C)(C)C)cc1 [SIAIS208037, N1-(2-(4-(4-chloro-1-(4-hydroxyphenyl)-2-phenylbut-1-en-1-yl)phenoxy)ethyl)-N11-((S)-1-((2S,4R)-4-hydroxy-2-((4-(4-methylthiazol-5-yl)benzyl)carbamoyl)pyrrolidin-1-yl)-3,3-dimethyl-1-oxobutan-2-yl)undecanediamide] | < 10 |  | < 10 |
